Assay results from patent US4308396A, “Thromboxane A2 analogues” (priority 1979, dated 1981).
Read-outs that look alike come from different tables or passages of the source.

How the values were obtained:
human platelets [1] = assay: Platelet aggregation in citrated human platelet-rich plasma; type: cell-based
Procedure: (§1) Platelet aggregation was studied in an aggregometer (Chronolog Corp., Phila., PA) using 0.5 ml citrated human platelet-rich plasma at 35° C. One minute after addition of analogue (up to 2 μl of a 25 mM solution in ethanol) aggregation was initiated by addition of sodium arachidonate (0.3-0.5 mM), ADP (2 μM) collagen (1 μg/ml), epinephrine (50 μM), 9,11-azo-PGH2, (0.1-0.6 μM), 9,11-methanoepoxy-PGH2, (0.3-0.6 μM), or 9,11-epoxy methano-PGH2 (1-3 μM). The analogues were also tested for their effects on the inhibition of ADP-induced aggregation by 2 nM prostacyclin or 20 nM prostaglandin D2.

human platelets [2] = assay: Effect on the inhibition of ADP-induced platelet aggregation by prostacyclin or prostaglandin D2; type: cell-based
Procedure: as §1

thromboxane synthetase [3] = biological target: T1, thromboxane synthetase (Oryctolagus cuniculus, UniProt G1TAZ9); assay: Thromboxane synthesis from 1-14C-arachidonic acid by washed rabbit platelets; type: cell-based
T1 sequence (G1TAZ9 1-530): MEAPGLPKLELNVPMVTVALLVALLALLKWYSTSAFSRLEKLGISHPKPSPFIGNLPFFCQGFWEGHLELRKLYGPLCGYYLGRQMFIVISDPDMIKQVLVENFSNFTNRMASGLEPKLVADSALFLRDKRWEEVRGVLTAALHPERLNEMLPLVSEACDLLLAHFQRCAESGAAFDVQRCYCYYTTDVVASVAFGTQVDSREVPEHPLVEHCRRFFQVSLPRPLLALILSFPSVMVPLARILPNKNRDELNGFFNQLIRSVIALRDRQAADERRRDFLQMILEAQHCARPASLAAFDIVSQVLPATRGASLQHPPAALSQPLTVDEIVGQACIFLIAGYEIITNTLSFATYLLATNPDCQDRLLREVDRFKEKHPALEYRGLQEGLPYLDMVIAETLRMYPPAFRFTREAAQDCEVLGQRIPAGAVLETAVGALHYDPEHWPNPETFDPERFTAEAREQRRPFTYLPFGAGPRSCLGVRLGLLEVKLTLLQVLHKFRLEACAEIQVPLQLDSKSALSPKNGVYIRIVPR
Procedure: (§2) To study the effects of analogues on thromboxane synthesis, rabbit platelets were washed free of plasma, resuspended in buffered saline solution and incubated at 37° C. for 5 minutes with analogues at either 10 μM or 100 μM. Radioactive 1-^14 C-arachidonic acid (0.5 μCi, SA 50 Ci/mol, New England Nuclear, Boston, Mass.) was added and incubation was continued for 15 minutes, lipids were extracted by the method of Folch, J. Biol. Chem. 226, 497 (1957), and subjected to thin layer chromatography. In additional experiments, human platelet-rich plasma was incubated at 37° C. in the aggregometer for 1 minute with analogues. Sodium arachidonate (0.4 mM) was added and incubation was continued for 5 minutes. The samples were decanted into one-tenth vol. 100 mM EDTA, centrifuged for 2 minutes at 15,000 g, and thromboxane B2 in the supernatant was determined by radioimmunoassay.

Thromboxane Synthetase [4] = assay: Thromboxane synthetase inhibition (Table 1); type: biochemical; details: read-out: Inhibits Thromboxane Synthetase, ID50
Procedure: as §2

cat liver lysosomes = assay: Release of cathepsin D from cat liver large granule fraction (lysosome stabilization); type: cell-based; details: 1 μM
Procedure: The perfusion apparatus consists of a reservoir containing 20 ml of warm (37° C.) oxygenated (95% O2 +5% CO2) K-H solution which bathes the coronary artery and serves as recirculating perfusate. An increase in perfusion pressure indicates vasoconstriction, whereas a decrease in perfusion pressure signifies vasodilation. Following an initial 1 hr. equilibrium period, vascular responsiveness was established by adding 25 mM KCl. After washing with fresh K-H solution for 20-30 minutes, the preparation achieved a relatively constant low basal tone. Basal perfusion pressure averaged 50±2.5 mm Hg. Fresh K-H dilutions of stock thromboxane analog concentrations were added to the perfusate reservoir in 0.1-0.2 ml volumes. Changes in perfusion pressure in response to thromboxane analogue addition generally plateaus within 5 minutes of administration. Constriction of the arteries was induced by addition of 15 or 30 nM 9,11-azo-prostaglandinendoperoxide (azo-PGH2), or 1 μM 9,11-methanoepoxy-PGH2. […] The effect of thromboxane analogues on the release of cathepsin D from the cat liver large granule fraction was determined as described in Lefer, A. M. et al, Science 200, 52 (1978).

cyclooxygenase = assay: Effect on cyclooxygenase, washed rabbit platelets; type: cell-based; details: inferred from prostaglandin increases
Procedure: as §2

thromboxane synthetase [5] = assay: Thromboxane B2 formation in human platelet-rich plasma (radioimmunoassay); type: cell-based; details: 50 μM
Procedure: as §2

cat coronary arteries = assay: Cat coronary artery constriction (perfused right coronary artery, constriction induced by endoperoxide analogues); type: cell-based; details: for inhibition at 0.1 µM: analogue 100 nM
Procedure: Thromboxane A2 analogues (up to 4 μl of a 2.5 mM solution in ethanol) were tested for their effects on cat coronary arteries continuously prefused with 10 ml Krebs-Henseleit solution as described below.
Cats of either sex (2.5-3.5 kg) were anesthetized with sodium pentobarbital (30 mg/kg) given intravenously. Hearts were reapidly excised and placed in oxygenated (95% O2 +5% CO2) ice-cold Krebs-Henseleit (K-H) solution of the following millimolar composition: NaCl, 118; KCl, 4.75; CaCl2.H2 O, 2.54; KH2 PO4, 1.19; MgSO4.7H2 O, 1.19; NaHCO3, 12.5; glucose, 10.00. A 20-gauge stainless steel cannula was inserted into the right coronary artery via the coronary ostium. Distal to the cannula, approximately 1 cm of coronary artery was dissected free of surrounding tissue. The section of right coronary artery with the cannula in place was excised from the heart and immediately transferred to a constant flow perfusion apparatus.
The perfusion apparatus consists of a reservoir containing 20 ml of warm (37° C.) oxygenated (95% O2 +5% CO2) K-H solution which bathes the coronary artery and serves as recirculating perfusate. An increase in perfusion pressure indicates vasoconstriction, whereas a decrease in perfusion pressure signifies vasodilation. Following an initial 1 hr. equilibrium period, vascular responsiveness was established by adding 25 mM KCl. After washing with fresh K-H solution for 20-30 minutes, the preparation achieved a relatively constant low basal tone. Basal perfusion pressure averaged 50±2.5 mm Hg. Fresh K-H dilutions of stock thromboxane analog concentrations were added to the perfusate reservoir in 0.1-0.2 ml volumes. Changes in perfusion pressure in response to thromboxane analogue addition generally plateaus within 5 minutes of administration. Constriction of the arteries was induced by addition of 15 or 30 nM 9,11-azo-prostaglandinendoperoxide (azo-PGH2), or 1 μM 9,11-methanoepoxy-PGH2. These compounds and their effects are described in the following references: Corey et al, PNAS, U.S.A. 72, 3355 (1975); Bundy, G. L., Tetr.Lett, 1957 (1975); Malmsten, C., Life Sci, 18, 169 (1976) and Smith, J. B., et al, in Platelets and Thrombosis, Ed. by Mills, D.C.B. et al, Academic Press, London/N.Y. 1977, pp 83-95. The effect of thromboxane analogues on the release of cathepsin D from the cat liver large granule fraction was determined as described in Lefer, A. M. et al, Science 200, 52 (1978). […]

Prostacyclin Synthetase = assay: Prostacyclin synthetase, sheep vesicular glands, 1-14C-arachidonic acid as substrate; type: biochemical; details: 100 μM; Table 1
Procedure: The effects of analogues on prostacyclin synthetase were determined using sheep vesicular glands as the enzyme source and 1-^14 C-arachidonic acid as substrate essentially as described by Cottee, F. et al, in Prostaglandins, 14, 413 (1978).

blood platelets = details: cited from earlier work; for effect on platelet aggregation: Gorman et al, Fitzpatrick et al
[6] = tested on: smooth muscle, blood vessels; details: cited from earlier work
[7] = cited from earlier work

Structure (SMILES): CCCCCC(O)C=CC1CC2CC(C1CC=CCCCC(=O)O)C2(C)C (single isomer, unassigned) [16R epimer of the analogue III (R^1 =R^2 =--OH), Pinane Thromboxane A2, free acid]
- effectiveness as a prostaglandin endoperoxide antagonist, relative to the 16S epimer (human platelets [1]; compared with 16S epimer): approximately ten times less effective

Structure (SMILES): CCCCCC(O)C=CC1CC2CC(C1CC=CCCCC(=O)O)C2(C)C (single isomer, unassigned) [III (R^1 =R^2 =OH, 16S), Pinane Thromboxane A2, free acid]
- effect on the inhibition of aggregation by prostaglandin D2 (human platelets [2]; 10 μM): nor did it affect
- effect on the Inhibition of Platelet Aggregation by Prostacyclin (human platelets [2]; Table 1): no effect
- effect on the Inhibition of Platelet Aggregation by Prostaglandin D2 (human platelets [2]; Table 1): no effect
- inhibition at 10 µM (thromboxane synthetase [3]; 10 μM, read-out: inhibition of thromboxane B2 formation from 1-14C-arachidonic acid): 23%
- inhibition at 100 µM (thromboxane synthetase [3]; 100 μM, read-out: inhibition of thromboxane B2 formation from 1-14C-arachidonic acid): 83%
- radioactive prostaglandins E2, D2 and F2 α (thromboxane synthetase [3]; with thromboxane B2 inhibition): corresponding increases
- IC50 (Thromboxane Synthetase [4]): 50 µM
- inhibition of the release of cathepsin D from cat liver lysosomes (cat liver lysosomes; 4 experiments): significant inhibition (p<0.005)
- Stabilizes Lysosomes (cat liver lysosomes; Table 1): Stabilizes Lysosomes
- effect on cyclooxygenase (cyclooxygenase): not on cyclooxygenase
- reduction of thromboxane B2 formation in human platelet-rich plasma (thromboxane synthetase [5]): 50%
- platelet aggregation induced by arachidonic acid (human platelets [1]; 10 μM): abolished
- platelet aggregation induced by collagen (human platelets [1]; 10 μM): partially inhibited
- primary aggregation induced by ADP (human platelets [1]; 10 μM): did not inhibit
- primary aggregation induced by epinephrine (human platelets [1]; 10 μM): did not inhibit
- second wave of aggregation induced by ADP (human platelets [1]; 10 μM): abolished
- second wave of aggregation induced by epinephrine (human platelets [1]; 10 μM): abolished
- arachidonic acid-induced aggregation in human platelet-rich plasma (human platelets [1]; 50 μM): abolished
- aggregation induced by 9,11-azo-PGH2 (human platelets [1]; 1-15 μM, dose-dependent): inhibited
- aggregation induced by 9,11-epoxymethano-PGH2 (human platelets [1]; 1-15 μM, dose-dependent): inhibited
- aggregation induced by 9,11-methanoepoxy-PGH2 (human platelets [1]; 1-15 μM, dose-dependent): inhibited
- IC50 (human platelets [1]; Homo sapiens, Platelet, Table 1, read-out: Inhibits Aggregation by Prostaglandin Endoperoxide Analogues, ID50): 2 µM
- IC50 (cat coronary arteries; Felis catus, Table 1, read-out: Inhibits Coronary Artery Contraction by Prostaglandin Endoperoxide Analogues, ID50): 0.1 µM
- inhibition at 0.1 µM (cat coronary arteries; Felis catus, read-out: reduction of constriction induced by 15 nM 9,11-azo-PGH2): 73%
- inhibition at 0.1 µM (cat coronary arteries; Felis catus, read-out: reduction of constriction induced by 30 nM 9,11-azo-PGH2): 50%
- constriction induced by 30 nM 9,11-azo-PGH2 (cat coronary arteries; analogue 1 μm): abolished
- effect on Prostacyclin Synthetase (Prostacyclin Synthetase): no effect

Structure (SMILES): CCCCCC(O)C=CC1C2CC(N=N2)C1CC=CCCCC(=O)O (stereo not shown) [9,11-azo-PGH2, 9, 11-azo prostaglandin endoperoxide, reference compound]
- effect on platelet aggregation (blood platelets): has aggregating activity
- Mean constriction at 15 nM 9,11-azo-PGH2 (cat coronary arteries; 15 nM, three experiments): 32 mm Hg
- Mean constriction at 30 nM 9,11-azo-PGH2 (cat coronary arteries; 30 nM, three experiments): 53 mm Hg

Structure (SMILES): CCCCCCC=CC1C2CC(N=N2)C1CC=CCCCC(=O)O (stereo not shown) [15-deoxy-9,11-azo-PGH2]
- effect on platelet aggregation (blood platelets): inhibits platelet aggregation

Structure (SMILES): CCCCCC/C=C/C1C2CC(ON2)C1C/C=C\CCCC(=O)O (stereo not shown) [15-deoxy-9,11-epoxyimino-PGH2]
- effect on platelet aggregation (blood platelets): inhibits platelet aggregation

Structure (SMILES): CCCCCC(O)C=CC1C(O)CC2OC(=CCCCC(=O)O)CC21 (stereo not drawn) [Prostacyclin, 6,9α-oxido-11α, 15α-dihydroxyprosta (Z) 5, E(13)-dienoic acid]
- dilation of blood vessels [6]: powerful action as a dilator of blood vessels
- half-life under physiological conditions ([7]; pH 7.4): about 2 minutes
- effect on platelet aggregates after they have formed (blood platelets): destroys platelet aggregates after they have formed
- inhibition of blood platelet aggregation (blood platelets; compared with all prostaglandins discovered to date): most potent inhibitor of blood platelet aggregation

Structure (SMILES): CCCCC[C@H](O)/C=C/[C@H]1O[C@H]2C[C@H](O2)[C@@H]1C/C=C\CCCC(=O)O [TA2, thromboxane A2]
- smooth muscle constricting properties [6]: smooth muscle constricting
- half-life under physiological conditions ([7]; pH 7.4 and 37° C.): 30 seconds
- thrombotic properties (blood platelets): potent thrombotic
